Laboratory results as given in ChEMBL document CHEMBL1138343 (J Med Chem, 2007).

Tests used:
[1] = biological target: T1, Glucocorticoid receptor (Homo sapiens, UniProt P04150); experiment: Agonist activity at glucocorticoid receptor in human A549 cells by MMTV transactivation assay; format: functional, cell-based; conditions: for pEC50: a549
T1 sequence (P04150 whole entry): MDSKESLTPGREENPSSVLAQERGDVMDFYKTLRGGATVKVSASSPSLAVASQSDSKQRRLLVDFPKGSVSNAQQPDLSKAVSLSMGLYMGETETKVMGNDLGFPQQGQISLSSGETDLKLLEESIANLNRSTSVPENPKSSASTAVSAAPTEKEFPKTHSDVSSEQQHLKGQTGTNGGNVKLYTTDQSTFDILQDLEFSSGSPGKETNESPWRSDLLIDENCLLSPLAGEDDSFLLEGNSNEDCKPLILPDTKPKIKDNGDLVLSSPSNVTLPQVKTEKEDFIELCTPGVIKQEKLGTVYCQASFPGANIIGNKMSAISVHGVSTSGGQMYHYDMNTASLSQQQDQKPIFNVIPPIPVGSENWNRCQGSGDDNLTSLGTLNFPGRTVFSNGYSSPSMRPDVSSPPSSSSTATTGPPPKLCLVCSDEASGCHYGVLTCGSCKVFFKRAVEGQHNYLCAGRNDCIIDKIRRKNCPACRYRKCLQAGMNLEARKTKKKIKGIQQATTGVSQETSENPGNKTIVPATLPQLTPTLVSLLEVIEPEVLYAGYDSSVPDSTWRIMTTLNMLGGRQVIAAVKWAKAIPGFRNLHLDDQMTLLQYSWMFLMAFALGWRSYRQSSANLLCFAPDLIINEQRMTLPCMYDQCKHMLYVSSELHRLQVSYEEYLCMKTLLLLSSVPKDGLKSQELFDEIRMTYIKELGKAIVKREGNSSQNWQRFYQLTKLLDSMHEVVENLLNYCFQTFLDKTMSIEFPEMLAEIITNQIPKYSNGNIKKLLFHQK

[2] = biological target: T1, Glucocorticoid receptor
[3] = biological target: T1, Glucocorticoid receptor; remark: listed apart in the source
Description: Agonist activity at glucocorticoid receptor in human A549 cells by NF-kappaB transrepression assay

[4] = biological target: T1, Glucocorticoid receptor; remark: listed apart in the source

Row | Compound | EC50 [1] [nM] | IC50 [2] [nM] | IC50 [3] [nM] | IC50 [4] [nM] | pEC50 [1]
1 | CC1(CC(O)(Cc2cc3ccccc3[nH]2)C(F)(F)F)CCCc2ccccc21 (stereo not given) | 41.7 | 22.9 | 42.7 | 447 | –
2 | CCC1(CC(O)(CNc2cccc3cnccc23)C(F)(F)F)CCCc2ccccc21 (stereo in doubt; 49D1) | 32.4 | 21.4 | 1.26 | – | –
3 | CCC1(CC(O)(Cc2cc3ccccc3[nH]2)C(F)(F)F)CCCc2ccccc21 (stereo in doubt; 20D1) | 64.6 | 31.6 | 57.5 | – | –
4 | CCC1(CC(O)(Cc2cc3ccncc3[nH]2)C(F)(F)F)CCCc2ccccc21 (stereo in doubt; 23D1E1) | > 1000 | 8.91 | 8.91 | 741 | –
5 | CC1(CC(O)(Cc2ccnc3ccccc23)C(F)(F)F)CCCc2ccccc21 (stereo in doubt; 41D1) | 12.9 | 15.1 | 7.08 | – | –
6 | CCC1(CC(O)(Cc2ccnc3ccccc23)C(F)(F)F)CCCc2ccccc21 (stereo in doubt; 33D1) | 38 | 15.1 | 4.9 | 5010 | –
7 | CCC1(CC(O)(Cc2cc3ccccc3[nH]2)C(F)(F)F)CCCc2ccccc21 (stereo in doubt; 20D1E2) | – | 1260 | > 1000 | – | –
8 | CC1(CC(O)(Cn2ccc(=O)c3ccccc32)C(F)(F)F)CCCc2ccccc21 (stereo in doubt; 17D2) | > 1000 | 34.7 | > 1000 | 708 | –
9 | CC1(CC(O)(Cn2ccc(=O)c3ccccc32)C(F)(F)F)CCCc2ccccc21 (stereo in doubt; 17D1) | – | 14.1 | 49 | 224 | < 6
10 | CCC1(CC(O)(Cc2ccnc3ccccc23)C(F)(F)F)CCCc2ccccc21 (stereo in doubt; 33D1E1) | > 1000 | 10 | 1.58 | – | –
11 | CC1(CC(O)(Cc2ccnc3ccccc23)C(F)(F)F)CCCc2ccccc21 (stereo in doubt; 41D2) | > 10000 | 24 | > 10000 | – | –
12 | CC1(CC(O)(CNc2cccc3cnccc23)C(F)(F)F)CCCc2ccccc21 (stereo in doubt; 54D2E1) | 257 | 74.1 | 15.1 | – | –
13 | OC(Cc1ccnc2ccccc12)(CC1(C2CCCC2)CCCc2ccccc21)C(F)(F)F (stereo not given) | > 10000 | 148 | 741 | – | –
14 | Cc1noc(=O)c2ccc(NC(=O)C(O)(CC3(C4CCCC4)CCCc4ccccc43)C(F)(F)F)cc12 (stereo not given) | 17.8 | 8.13 | 2.04 | 53.7 | –
15 | CCC1(CC(O)(Cc2cc(Cl)nc3ccccc23)C(F)(F)F)CCCc2ccccc21 (stereo not given) | 51.3 | 28.2 | 30.2 | – | –
16 | CCC1(CC(O)(Cc2cc3ccncc3[nH]2)C(F)(F)F)CCCc2ccccc21 (stereo in doubt; 23D1) | – | 28.2 | 20 | – | < 6

Row | Compound | EC50 [1] [nM] | IC50 [2] [nM] | IC50 [3] [nM] | IC50 [4] [nM] | pEC50 [1]
17 | CCC1(CC(O)(CNc2cccc3nc(C)ccc23)C(F)(F)F)CCCc2ccccc21 (stereo in doubt; 45D1E1) | 11 | 14.8 | 1.95 | – | –
18 | CCC1(CC(O)(Cn2ccc(=O)c3ccccc32)C(F)(F)F)CCCc2ccccc21 (stereo not given) | > 1000 | 14.1 | 8.13 | – | –
19 | CCC1(CC(O)(CNc2cccc3cnccc23)C(F)(F)F)CCCc2ccccc21 (stereo in doubt; 49D1E2) | > 1000 | 10 | 2.19 | – | –
20 | CCC1(CC(O)(CNc2cccc3nc(C)ccc23)C(F)(F)F)CCCc2ccccc21 (stereo in doubt; 45D1) | 13.2 | 14.8 | 2.4 | – | –
21 | CCC1(CC(O)(Cc2cc3c(C)cc(C#N)cc3[nH]2)C(F)(F)F)CCCc2ccccc21 (stereo in doubt; 21D1E2) | 51.3 | 38.9 | 3.8 | – | –
22 | CCC1(CC(O)(Cc2cc3c(C)cc(C#N)cc3[nH]2)C(F)(F)F)CCCc2ccccc21 (stereo in doubt; 21D1) | 58.9 | 89.1 | 7.24 | – | –
23 | Cc1ccc2c(NCC(O)(CC3(C)CCCc4ccccc43)C(F)(F)F)cccc2n1 (stereo in doubt; 55D1E1) | 9.55 | 5.01 | 0.501 | 77.6 | –
24 | CCC1(CC(O)(Cc2[nH]c3ccccc3c2C#N)C(F)(F)F)CCCc2ccccc21 (stereo not given) | > 1000 | 7.59 | 6.61 | 57.5 | –
25 | Cc1ccc2c(NCC(O)(CC3(C)CCCc4ccccc43)C(F)(F)F)cccc2n1 (stereo in doubt; 55D2E1) | 72.4 | 9.12 | 9.12 | – | –
26 | CC1(CC(O)(CNc2cccc3ncccc23)C(F)(F)F)CCCc2ccccc21 (stereo not given) | 13.5 | 6.31 | 3.09 | – | –
27 | CCC1(CC(O)(CNc2cccc3nc(C)ccc23)C(F)(F)F)CCCc2ccccc21 (stereo in doubt; 45D2) | 162 | 18.6 | 49 | – | –
28 | CCC1(CC(O)(Cc2ccnc3ccccc23)C(F)(F)F)CCCc2ccccc21 (stereo in doubt; 33D2) | > 10000 | 33.1 | 275 | – | –
29 | CCC1(CC(O)(CNc2cccc3ncccc23)C(F)(F)F)CCCc2ccccc21 (stereo not given) | > 1000 | 11.2 | 12.3 | – | –
30 | CCC1(CC(O)(Cc2cc3ccccc3[nH]2)C(F)(F)F)CCCc2ccccc21 (stereo in doubt; 20D1E1) | 61.7 | 14.1 | 11.2 | 245 | –
31 | CCC1(CC(O)(CNc2cccc3nc(C)ccc23)C(F)(F)F)CCCc2ccccc21 (stereo in doubt; 45D2E1) | 288 | 17.4 | 45.7 | – | –
32 | CC1(CC(O)(CNc2cccc3cnccc23)C(F)(F)F)CCCc2ccccc21 (stereo in doubt; 54D1E2) | 8.32 | 8.71 | 1.17 | 102 | –
